In the RepoRT retention time repository:

Experiment: Agilent ZORBAX 300 SB-C18, 150 × 1 mm, 3.5 µm; A: water + 0.01% heptafluorobutyric acid; B: acetonitrile + 0.01% heptafluorobutyric acid; gradient (min/%B) 0/0 100/90
Details: stereoisomer not certain

| SMILES | LC retention time |
| --- | --- |
| CC(O)CCN (stereo unspecified) | 3.82 min |
| CN1CCC(NCc2cccnc2)CC1 | 7.19 min |
| CNCc1cccc(C)c1 | 8.02 min |
| OCCNC1CCCCC1 | 7.24 min |
| Cc1ccccc1C=NNC(=O)C(O)(c1ccccc1)c1ccccc1 | 14.5 min |
| Cc1cc(C)n(CCO)c(=O)n1 | 5.92 min |
| Cc1ccccc1CN1CCN(Cc2c[nH]c3ccccc23)CC1 | 10.8 min |
| Cc1ccc(OC(=O)CCC(=O)N2CCN(C(=O)CCC(=O)Oc3ccc(C)cc3)CC2)cc1 | 14.3 min |
| C[N+](C)(C)CCOP(=O)(O)OP(=O)(O)OCC1OC(n2ccc(N)nc2=O)C(O)C1O (stereo unspecified) | 1.63 min |
| CN(C)c1nc(N(C)C)nc(N(C)C)n1 | 9.15 min |
| Cc1c(N)cccc1N | 6.51 min |
| NCC1CCNCC1 | 6.49 min |
| COc1ccccc1CC(=O)Nc1cccc(C)c1 | 13.9 min |
| S=c1nccc(-c2ccc3ccccc3c2)[nH]1 | 10.6 min |
| O=c1c(Cc2ccccc2)c(O)c2ccccc2n1Cc1ccccc1 | 15.2 min |
| O=C(Nc1ccc2c(c1)oc1ccccc12)c1ccc(C2CCCCC2)cc1 | 20.1 min |
| CC(=O)Oc1ccc(-c2cnc3ccccc3n2)cc1 | 13.9 min |
| CC(=O)Oc1ccccc1C=Cc1nc2ccccc2c(=O)o1 | 14.8 min |
| NCCc1cccs1 | 7.47 min |
| Cc1ccc(N)cc1 | 7.62 min |
| C=CCNC1CCCC1 | 7.45 min |

Continued, values first:

| LC retention time | SMILES |
| --- | --- |
| 15.4 min | c1ccc(Nc2ccccc2)cc1 |
| 8.69 min | Cc1cc(N)c2c(c1)CCC(=O)N2 |
| 10.3 min | Nc1ccc2c(c1)SSc1cc(N)ccc1-2 |
| 2.3 min | CCC(N)=O |
| 17.9 min | Cc1ccc(-c2nc3ccccc3s2)cc1 |
| 13.7 min | Cc1ccc(-c2nc(-c3c[nH]c4ccccc34)[nH]c2-c2ccc(C)cc2)cc1 |
| 14.2 min | COc1ccc2occ(C(=O)c3ccccc3C)c(=O)c2c1 |
| 11.7 min | CCOc1nc(N(c2ccccc2)c2ccccc2)[nH]c(=O)n1 |
| 6.67 min | Cc1cccnc1C |
| 12.8 min | O=C(NC(Cc1ccccc1)C(=O)NCc1ccco1)c1ccccc1 (stereo unspecified) |
| 8.21 min | O=C1CCCC(O)=C1C1(O)C(=O)c2ccccc2C1=O |
| 21.4 min | COc1ccc2c(c1)CCC1C2CCC2(C)C(=O)C(=Cc3ccccc3)CC12 (stereo unspecified) |
| 11.1 min | CC(=O)Nc1ccc(C(=O)NCCc2c[nH]c3ccc(C)cc23)cc1 |
| 7.27 min | Nc1ccc2c(c1)COC2=O |
| 6.19 min | O=C(O)CC(NCc1ccccc1)C(=O)O (stereo unspecified) |
| 7.01 min | Nc1ccc2[nH]ccc2c1 |
| 15.9 min | CC(C)c1ccccc1NC(=O)c1cc2ccccc2o1 |
| 13.3 min | O=C(CCc1ccccc1)NN=Cc1ccccc1O |
| 13.3 min | Cc1cccc2c1CC(C)(C)NC2=S |
| 7.96 min | Cc1ccoc1CC[N+](C)(C)C |
| 6.51 min | NC1CCCC1 |
| 11.1 min | CC(=O)Oc1cccc(C(=O)NN2C(=O)c3ccccc3C2=O)c1 |
| 8.29 min | CN1C(=O)C2CN(CCc3ccccc3)CNC2N(C)C1=O (stereo unspecified) |
| 8.12 min | CN(C)c1ccc(CNC2CC(C)(C)NC(C)(C)C2)cc1 |
| 7.1 min | Nc1ccc2nccnc2c1 |
| 13.1 min | COc1ccc2c(c1)C(C)N1C(=O)c3cc(OC)c(OC)cc3C1O2 (stereo unspecified) |
| 5.97 min | NC(=O)Cc1ccc(O)cc1 |
| 6.54 min | CNc1ccccn1 |
| 10.6 min | CC(=O)Nc1ccc(CC(C(=O)O)c2ccccc2)cc1 (stereo unspecified) |
| 17.4 min | Cc1ccc(C(=O)C=Cc2sccc2C)cc1 |
